Laboratory results published in US8604217B2, “Compound, a process for its preparation, a pharmaceutical composition, use of a compound, a method for modulating or regulating serine/threonine kinases and a serine/threonine kinases modulating agent” (Selvita S.A., priority 2009, dated 2013).

How the values were obtained:
Type in all cases: cell-based
[1] = test system: human breast adenocarcinoma MCF7 cells; assay: Growth inhibition test (MTS) on MCF7 cells; details: Homo sapiens, MCF7, 72 hours, read-out: MCF-7 ED50
In short: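 MCF7 cells seeded in DMEM with 10% FCS, dosed next day at 0.1–10 micromol/L (diluted from 10 mmol/L DMSO stock) and cultured 72 h at 37° C, 5% CO2. MTS added for 2 h, absorbance read at 490 nm; % viability calculated relative to untreated cells as 100%.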

[2] = test system: human colorectal adenocarcinoma SW480 cells; assay: Growth inhibition test (MTS) on SW480 cells; details: Homo sapiens, SW480, 72 hours, read-out: SW480 ED50
Procedure: (§1) Two thousand cells of human colorectal adenocarcinoma SW480 were inoculated into each well of a 96-well microplate (manufactured by Corning Corp.), and using DMEM/Ham's F121:1 medium (culture medium) containing 5% fetal calf serum (FCS). Next day, a dimethyl sulfoxide (DMSO) solution of each test compound prepared in a concentration of 10 mmol/L was further diluted with culture medium to the desired concentrations (0.1, 0.5, 1, 2.5, 5 and 10 micromol/L), and the diluted solution was added to each well. The individual wells were further cultured in 5% carbon dioxide at 37° C. for 72 hours. After completion of the culture, 10 μl MTS (3-(4,5-Dimethyl-2-thiazolyl)-5-(carboxymethoxyphenyl)-2-(4-sulfophenyl)-2H-tetrazolium, inner salt assay (CellTiter96® AQueous One Solution Cell Proliferation Assay, Promega) was added to each well, and culturing was performed in 5% carbon dioxide at 37° C. for 2 hours. Using a microplate spectrophotometer (Synergy 2 multi-mode microplate reader (BioTek)), the absorbance of each well was measured at 490 nm. The value for cells not incorporated with a test compound was designated as 100%. By comparing these values with the absorbance difference obtained at the well in which each test compound was added, the cell viability (% viability) after treatment with the test compound was calculated.

[3] = test system: human erytroblast leukemia HEL-92.1.7 cells; assay: Growth inhibition test (MTS) on HEL-92.1.7 cells; details: 72 hours, read-out: HEL92 ED50
Procedure: as §1, with “Ten thousand” for “Two thousand”, “human erytroblast leukemia HEL-92.1.7” for “human colorectal adenocarcinoma SW480”, “Corning Corp.)” for “Corning Corp.), and”, “using RPMI 1640” for “using DMEM/Ham's F121:1”, “containing 10%” for “containing 5%”

[4] = test system: human acute lymphocytic leukemia E6.1 Jurkat cells; assay: Growth inhibition test (MTS) on E6.1 Jurkat cells; details: 72 hours, read-out: Jurkat ED50

SMILES	IC50 [1] [µM]	IC50 [2] [µM]	IC50 [3] [µM]	IC50 [4] [µM]
Brc1c(Br)c(Br)c2[nH]c(N[C@H]3COC[C@@H]3N3CCCC3)nc2c1Br [Compound 337, 4,5,6,7-tetrabromo-N-((3R,4R)-tetrahydro-4-(pyrrolidin-1-yl)furan-3-yl)-1H-benzo[d]imidazol-2-amine]	1.78	1.61	4.5	
Brc1c(Br)c(Br)c2[nH]c(N[C@H]3COC[C@@H]3N3CCCCC3)nc2c1Br [Compound 338, 4,5,6,7-tetrabromo-N-((3R,4R)-tetrahydro-4-(piperidin-1-yl)furan-3-yl)-1H-benzo[d]imidazol-2-amine]	2.5	1.95	5.68	
Brc1c(Br)c(Br)c2c(nc(N3CCNCC3)n2Cc2ccccc2)c1Br [Compound 374, 1-benzyl-4,5,6,7-tetrabromo-2-(piperazin-1-yl)-1H-benzo[d]imidazole]	1.5	1.44	3	
Brc1c(Br)c(Br)c2[nH]c(N3CCC(C4CCNCC4)CC3)nc2c1Br [Compound 386, 4,5,6,7-tetrabromo-2-(4-(piperidin-4-yl)piperidin-1-yl)-1H-benzo[d]imidazole]	2.47	1.77	6.12	
Brc1c(Br)c(Br)c2[nH]nnc2c1Br [TBB, 4,5,6,7-tetrabromo-1Hbenzotriazole, reference compound]		> 10		> 10
Brc1c(Br)c(Br)c2[nH]cnc2c1Br [TBI, 4,5,6,7-tetrabromo-1H-benzimidazole, reference compound]		7.21		> 10

Second part, led by results:

IC50 [1] [µM]	IC50 [2] [µM]	IC50 [3] [µM]	SMILES	IC50 [4] [µM]
6.2	4.15		NC1CCCC(Nc2nc3c(Br)c(Br)c(Br)c(Br)c3[nH]2)C1 (stereo not shown) [Compound 336, N1-(4,5,6,7-tetrabromo-1H-benzo[d]imidazol-2-yl)cyclohexane-1,3-diamine]	
2.75	1.61	6	NCc1ccccc1CNc1nc2c(Br)c(Br)c(Br)c(Br)c2[nH]1 [Compound 349, N-(2-(aminomethyl)benzyl)-4,5,6,7-tetrabromo-1H-benzo[d]imidazol-2-amine]	
3.03	2.42	7.65	CN1CCCC(Nc2nc3c(Br)c(Br)c(Br)c(Br)c3[nH]2)CC1 (stereo not shown) [Compound 358, 4,5,6,7-tetrabromo-N-(1-methylazepan-4-yl)-1H-benzo[d]imidazol-2-amine]	
1.6	1.27	5.57	C[C@@H]1CN(c2nc3c(Br)c(Br)c(Br)c(Br)c3[nH]2)[C@@H](C)CN1 [Compound 364, 4,5,6,7-tetrabromo-2-((2S,5R)-2,5-dimethylpiperazin-1-yl)-1H-benzo[d]imidazole]	
2.15	2.84	5.1	Brc1c(Br)c(Br)c2[nH]c(NC3CCCNCC3)nc2c1Br (stereo not shown) [Compound 366, N-(azepan-4-yl)-4,5,6,7-tetrabromo-1H-benzo[d]imidazol-2-amine]	
1.6	0.55	6.2	CC(C)NC1CCCCC1Nc1nc2c(Br)c(Br)c(Br)c(Br)c2[nH]1 (stereo not shown) [Compound 369, N1-(4,5,6,7-tetrabromo-1H-benzo[d]imidazol-2-yl)-N2-isopropylcyclohexane-1,2-diamine]	
6.19	5	9.04	CN(C)C1CCCN(c2nc3c(Br)c(Br)c(Br)c(Br)c3[nH]2)C1 (stereo not shown) [Compound 378, 1-(4,5,6,7-tetrabromo-1H-benzo[d]imidazol-2-yl)-N,N-dimethylpiperidin-3-amine]	
	9.13		Brc1c(Br)c(Br)c2c(Br)n[nH]c2c1Br [Compound K64, 3,4,5,6,7-pentabromo-1H-indazole, reference compound]	> 10
	> 10		CN(C)c1nc2c(Br)c(Br)c(Br)c(Br)c2n1CC(=O)O [Compound K66, 1-carboxymethyl-2-dimethylamino-4,5,6,7-tetrabromo-benzimidazole, reference compound]	> 10
